Converted amounts (≈) assume the structure as drawn.

The nature of the first data set: water solubility. The class given is physicochemical. The following applies: ph 7 buffer, pH 7.
The compound `CCCC(=O)OC[C@H]1O[C@@H](n2cnc3c(N)ncnc32)[C@@H](O)[C@@H]1O` [Example 3, 9-(5-O-butyryl-β-D-arabinofuranosyl)adenine] showed a water solubility of 16.1 mg/mL (≈ 47.7 mM).

The data set is the same for the next values; noted with them: ph 7 buffer, pH 7, aqueous buffer.
By solubility is commonly meant the dissolved amount per volume that the medium holds. Low readings indicate little dissolved substance, high ones much dissolved substance. `CC(=O)OC[C@H]1O[C@@H](n2cnc3c(N)ncnc32)[C@@H](O)[C@@H]1O` [Example 1, 9-(5-O-acetyl-β-D-arabinofuranosyl)adenine] displayed a solubility of 9.9 mg/mL (≈ 32 mM).
The compound `CCC(=O)OC[C@H]1O[C@@H](n2cnc3c(N)ncnc32)[C@@H](O)[C@@H]1O` [Example 2, 9-(5-O-propionyl-β-D-arabinofuranosyl)adenine] had a solubility of 9.2 mg/mL (≈ 28.5 mM).
The compound `CCCCC(=O)OC[C@H]1O[C@@H](n2cnc3c(N)ncnc32)[C@@H](O)[C@@H]1O` [Example 4] showed a solubility of 8.4 mg/mL (≈ 23.9 mM).
In turn, `CC(C)CC(=O)OC[C@H]1O[C@@H](n2cnc3c(N)ncnc32)[C@@H](O)[C@@H]1O` [Example 5, 9-[5-O-(3-methylbutyryl)-β-D-arabinofuranosyl]-adenine] gave a solubility of 16.4 mg/mL (≈ 46.7 mM). This solubility lies about 2-fold higher than the previous one.
The compound `CC(C)(C)C(=O)OC[C@H]1O[C@@H](n2cnc3c(N)ncnc32)[C@@H](O)[C@@H]1O` [Example 6, 9-[5-O-(2,2-dimethylpropionyl)-β-D-arabinofuranosyl]-adenine] yielded a solubility of 7 mg/mL (≈ 19.9 mM).
Consider `CCCCCC(=O)OC[C@H]1O[C@@H](n2cnc3c(N)ncnc32)[C@@H](O)[C@@H]1O` [Example 7, 9-(5-O-hexanoyl-β-D-arabinofuranosyl)adenine], for which the solubility worked out at 2.5 mg/mL (≈ 6.84 mM). Compared with the last compound, the solubility is about 2.8-fold lower.

For the origin of these results see patent US4069382A, “9-(5-O-Acyl-β-D-arabinofuranosyl)adenine compounds” (Parke, Davis & Company, priority 1976, dated 1978).
